{"source": "DBAASP", "test_in_all_cases": "≥ marks a high value that may be exact or a test limit, other limits are often not marked, values filed in µg/mL are converted to µM", "key": {"Bacillus subtilis": {"test_system": "Bacillus subtilis"}, "[1]": {"test_system": "Salmonella enterica subsp. enterica serovar Typhimurium ATCC 14028"}, "[2]": {"test_system": "Pseudomonas aeruginosa ATCC 27853"}, "[3]": {"test_system": "Klebsiella pneumoniae ATCC 13883"}, "[4]": {"test_system": "Streptococcus pyogenes ATCC 19615"}, "[5]": {"test_system": "Staphylococcus aureus ATCC 25923"}, "[6]": {"test_system": "Enterococcus faecalis ATCC 29212"}, "Escherichia coli": {"test_system": "Escherichia coli"}, "[7]": {"test_system": "Streptococcus pneumoniae BCRC 10794"}, "[8]": {"test_system": "Staphylococcus aureus BCRC 10780"}, "[9]": {"test_system": "Escherichia coli ATCC 25922"}, "[10]": {"test_system": "Klebsiella pneumoniae ATCC 700603"}, "[11]": {"test_system": "Micrococcus luteus ATCC 49732"}, "[12]": {"test_system": "Neisseria gonorrhoeae ATCC 49226"}, "Serratia sp. ATCC 39006": {"test_system": "Serratia sp. ATCC 39006"}, "[13]": {"test_system": "Staphylococcus aureus ATCC 43330"}, "[14]": {"test_system": "Shigella sonnei ATCC 25931"}, "[15]": {"test_system": "Staphylococcus saprophyticus ATCC 15305"}, "[16]": {"test_system": "Staphylococcus epidermidis ATCC 12228"}, "[17]": {"test_system": "Proteus vulgaris ATCC 49132"}, "[18]": {"test_system": "Streptococcus agalactiae ATCC 12386"}, "[19]": {"test_system": "Listeria monocytogenes ATCC 35152"}, "[20]": {"test_system": "Staphylococcus aureus ATCC 29213"}, "[21]": {"test_system": "Pseudomonas aeruginosa LCGE"}, "[22]": {"test_system": "Pseudomonas aeruginosa LC"}, "[23]": {"test_system": "Pseudomonas aeruginosa LCCI"}, "[24]": {"test_system": "Salmonella enterica subsp. enterica serovar Typhimurium C77-31"}, "[25]": {"test_system": "Pseudomonas aeruginosa ATCC 21630"}, "[26]": {"test_system": "Pseudomonas aeruginosa LCCE"}, "[27]": {"test_system": "Pseudomonas aeruginosa ATCC 10419"}, "Escherichia coli UB1005": {"test_system": "Escherichia coli UB1005"}, "[28]": {"test_system": "Pseudomonas aeruginosa ATCC 21625"}, "[29]": {"test_system": "Staphylococcus aureus ATCC 25023"}, "[30]": {"test_system": "Enterococcus faecalis CGMCC 1.595"}, "[31]": {"test_system": "Staphylococcus epidermidis CICC 23664"}, "[32]": {"test_system": "Enterococcus faecium CGMCC 1.2334"}, "[33]": {"test_system": "Staphylococcus epidermidis"}, "[34]": {"test_system": "Pseudomonas aeruginosa 0108"}, "Bacillus cereus AS1.126": {"test_system": "Bacillus cereus AS1.126"}, "[35]": {"test_system": "Klebsiella pneumoniae subsp. pneumoniae CGMCC 1.176"}, "[36]": {"test_system": "Proteus mirabilis CICC 22931"}, "[37]": {"test_system": "Enterobacter cloacae CGMCC 1.58"}, "Escherichia coli AS1.349": {"test_system": "Escherichia coli AS1.349"}, "[38]": {"test_system": "Staphylococcus aureus AS1.72"}, "[39]": {"test_system": "Pseudomonas aeruginosa CGMCC 1.860"}}}
{"molecule": "CC[C@H](C)[C@H](NC(=O)[C@@H]1CCCN1C(=O)[C@H](CC(C)C)NC(=O)[C@@H](N)CC(C)C)C(=O)N[C@H](C(=O)NCC(=O)N[C@@H](CC(N)=O)C(=O)N[C@@H](CC(C)C)C(=O)N[C@@H](CC(C)C)C(=O)N[C@@H](CCCCN)C(=O)N[C@@H](CO)C(=O)N[C@@H](CC(C)C)C(=O)N[C@@H](CC(C)C)C(=O)NCC(=O)N[C@@H](Cc1c[nH]c2ccccc12)C(=O)N[C@@H](CCCCN)C(=O)N[C@@H](CCCN=C(N)N)C(=O)N[C@@H](CCCCN)C(=O)N[C@@H](C)C(=O)N[C@@H](Cc1ccccc1)C(=O)NCC(N)=O)C(C)C", "note": "[LLPIVGNLLKSLLGWKRKAFG]", "values": [{"measurement": "MIC", "setting": "Bacillus subtilis", "result": "≥ 50", "unit": "µM"}, {"measurement": "MIC", "setting": "[1]", "result": "> 200", "unit": "µM"}, {"measurement": "MIC", "setting": "[2]", "result": 200, "unit": "µM"}, {"measurement": "MIC", "setting": "[3]", "result": "≥ 200", "unit": "µM"}, {"measurement": "MIC", "setting": "[4]", "result": "≥ 100", "unit": "µM"}, {"measurement": "MIC", "setting": "[5]", "result": 50, "unit": "µM"}, {"measurement": "MIC", "setting": "[6]", "result": 100, "unit": "µM"}, {"measurement": "MIC", "setting": "Escherichia coli", "result": 100, "unit": "µM"}]}
{"molecule": "CC[C@H](C)[C@H](NC(=O)[C@H](CCSC)NC(C)=O)C(=O)N[C@@H](Cc1cnc[nH]1)C(=O)NCC(=O)N[C@@H](CC(C)C)C(=O)N[C@H](C(=O)N[C@H](C(=O)N[C@@H](CCCN=C(N)N)C(=O)N[C@@H](CCCN=C(N)N)C(N)=O)[C@@H](C)O)C(C)C", "note": "[MIHGLVTRR]", "values": [{"measurement": "MIC", "setting": "[7]", "result": "≥ 92.4", "unit": "µM"}, {"measurement": "MIC", "setting": "[8]", "result": "≥ 92.4", "unit": "µM"}]}
{"molecule": "CC[C@H](C)[C@H](NC(=O)[C@H](CCCCN)NC(=O)[C@H](CCCN=C(N)N)NC(=O)[C@H](CC(C)C)NC(=O)[C@H](Cc1ccccc1)NC(=O)[C@H](CCCN=C(N)N)NC(=O)CNC(=O)[C@H](Cc1ccccc1)NC(=O)[C@@H](N)CCCN=C(N)N)C(=O)N[C@@H](CCCN=C(N)N)C(=O)N[C@@H](CCCN=C(N)N)C(=O)N[C@@H](Cc1ccccc1)C(=O)N[C@@H](CCCN=C(N)N)C(=O)N1CCC[C@H]1C(=O)N[C@@H](CCCCN)C(=O)N[C@H](C(=O)N[C@H](C(=O)N[C@H](C(=O)N[C@H](C(=O)N[C@H](C(=O)N[C@@H](CCC(N)=O)C(=O)NCC(=O)N[C@@H](CO)C(=O)N[C@@H](C)C(=O)N[C@@H](CCCN=C(N)N)C(=O)N[C@@H](Cc1ccccc1)C(N)=O)[C@@H](C)CC)[C@@H](C)O)[C@@H](C)CC)[C@@H](C)O)C(C)C", "note": "[RFGRFLRKIRRFRPKVTITIQGSARF]", "values": [{"measurement": "MIC", "setting": "[9]", "result": 1.62, "unit": "µM"}, {"measurement": "MIC", "setting": "[10]", "result": 4.55, "unit": "µM"}, {"measurement": "MIC", "setting": "[11]", "result": 0.814, "unit": "µM"}, {"measurement": "MIC", "setting": "[1]", "result": 2.25, "unit": "µM"}, {"measurement": "MIC", "setting": "[12]", "result": 5.2, "unit": "µM"}, {"measurement": "MIC", "setting": "Serratia sp. ATCC 39006", "result": 3.9, "unit": "µM"}, {"measurement": "MIC", "setting": "[13]", "result": 2.6, "unit": "µM"}, {"measurement": "MIC", "setting": "[14]", "result": 3.9, "unit": "µM"}, {"measurement": "MIC", "setting": "[5]", "result": 2.25, "unit": "µM"}, {"measurement": "MIC", "setting": "[15]", "result": 0.976, "unit": "µM"}, {"measurement": "MIC", "setting": "[16]", "result": 2.92, "unit": "µM"}, {"measurement": "MIC", "setting": "[6]", "result": 2.25, "unit": "µM"}, {"measurement": "MIC", "setting": "[17]", "result": 3.25, "unit": "µM"}, {"measurement": "MIC", "setting": "[18]", "result": 2.6, "unit": "µM"}]}
{"molecule": "CSCC[C@H](NC(=O)[C@H](CCCCN)NC(=O)[C@H](CCCCN)NC(=O)[C@H](CC(N)=O)NC(=O)[C@H](CCCN=C(N)N)NC(=O)[C@H](CS)NC(=O)[C@H](CCCCN)NC(=O)[C@@H](N)CCCCN)C(=O)N[C@@H](CCC(=O)O)C(=O)N[C@H](C(=O)N[C@@H](CO)C(=O)N[C@@H](CCCN=C(N)N)C(N)=O)C(C)C", "note": "[KKCRNKKMEVSR]", "values": [{"measurement": "MIC", "setting": "[9]", "result": 26.5, "unit": "µM"}, {"measurement": "MIC", "setting": "[2]", "result": 39.8, "unit": "µM"}, {"measurement": "MIC", "setting": "[3]", "result": 19.9, "unit": "µM"}, {"measurement": "MIC", "setting": "[19]", "result": 26.5, "unit": "µM"}, {"measurement": "MIC", "setting": "[5]", "result": 16.6, "unit": "µM"}]}
{"molecule": "CC[C@H](C)[C@H](NC(=O)[C@H](CCCCN)NC(=O)[C@H](CCCCN)NC(=O)[C@H](CC(C)C)NC(=O)[C@H](CCCN=C(N)N)NC(=O)[C@H](CCCCN)NC(=O)[C@H](CCCN=C(N)N)NC(=O)[C@@H](NC(=O)[C@H](CCCCN)NC(=O)[C@H](CCCCN)NC(=O)[C@H](CCCN=C(N)N)NC(=O)[C@H](CC(C)C)NC(=O)[C@H](CCCN=C(N)N)NC(=O)[C@H](CCCN=C(N)N)NC(=O)[C@H](Cc1ccccc1)NC(=O)[C@@H](N)CCCN=C(N)N)[C@@H](C)O)C(N)=O", "note": "[RFRRLRKKTRKRLKKI]", "values": [{"measurement": "MIC", "setting": "[9]", "result": 128, "unit": "µM"}, {"measurement": "MIC", "setting": "[20]", "result": 128, "unit": "µM"}, {"measurement": "MIC", "setting": "[21]", "result": "≥ 256", "unit": "µM"}, {"measurement": "MIC", "setting": "[22]", "result": "≥ 32", "unit": "µM"}, {"measurement": "MIC", "setting": "[2]", "result": 256, "unit": "µM"}, {"measurement": "MIC", "setting": "[23]", "result": "≥ 256", "unit": "µM"}, {"measurement": "MIC", "setting": "[24]", "result": "≥ 128", "unit": "µM"}, {"measurement": "MIC", "setting": "[25]", "result": "≥ 256", "unit": "µM"}, {"measurement": "MIC", "setting": "[26]", "result": "≥ 256", "unit": "µM"}, {"measurement": "MIC", "setting": "[16]", "result": 32, "unit": "µM"}, {"measurement": "MIC", "setting": "[6]", "result": 128, "unit": "µM"}, {"measurement": "MIC", "setting": "[27]", "result": "≥ 256", "unit": "µM"}, {"measurement": "MIC", "setting": "Escherichia coli UB1005", "result": "≥ 128", "unit": "µM"}, {"measurement": "MIC", "setting": "[28]", "result": "≥ 256", "unit": "µM"}]}
{"molecule": "CC(C)C[C@H](NC(=O)[C@H](CCCN=C(N)N)NC(=O)[C@H](CC(C)C)NC(=O)[C@H](CC(C)C)NC(=O)[C@H](CC(C)C)NC(=O)[C@H](CC(C)C)NC(=O)[C@H](CC(C)C)NC(=O)[C@H](CCCCN)NC(=O)[C@H](CC(C)C)NC(=O)[C@@H](N)CCCN=C(N)N)C(N)=O", "note": "[RLKLLLLLRL]", "values": [{"measurement": "MIC", "setting": "[29]", "result": 6.4, "unit": "µM"}]}
{"molecule": "CC[C@H](C)[C@H](N)C(=O)N[C@@H](CCCCN)C(=O)N[C@@H](CCCCN)C(=O)N[C@@H](Cc1c[nH]c2ccccc12)C(=O)N[C@@H](Cc1c[nH]c2ccccc12)C(=O)N[C@@H](CO)C(=O)N[C@@H](CCCCN)C(=O)N[C@H](C(=O)N[C@@H](CCCCN)C(=O)N[C@@H](CCCCN)C(=O)N[C@@H](CC(C)C)C(=O)N[C@@H](CC(C)C)C(=O)N[C@@H](CCCCN)C(N)=O)[C@@H](C)CC", "note": "[IKKWWSKIKKLLK]", "values": [{"measurement": "MIC", "setting": "[30]", "result": 0.78, "unit": "µM"}, {"measurement": "MIC", "setting": "[31]", "result": 1.56, "unit": "µM"}, {"measurement": "MIC", "setting": "[32]", "result": 1.56, "unit": "µM"}, {"measurement": "MIC", "setting": "[33]", "result": 3.12, "unit": "µM"}, {"measurement": "MIC", "setting": "[34]", "result": 12.5, "unit": "µM"}, {"measurement": "MIC", "setting": "Bacillus cereus AS1.126", "result": 3.13, "unit": "µM"}, {"measurement": "MIC", "setting": "[35]", "result": 25, "unit": "µM"}, {"measurement": "MIC", "setting": "[36]", "result": 6.25, "unit": "µM"}, {"measurement": "MIC", "setting": "[37]", "result": 0.78, "unit": "µM"}, {"measurement": "MIC", "setting": "Escherichia coli AS1.349", "result": 3.13, "unit": "µM"}, {"measurement": "MIC", "setting": "[38]", "result": 1.56, "unit": "µM"}, {"measurement": "MIC", "setting": "[39]", "result": 3.13, "unit": "µM"}]}
